From patent US11807906B2, “Peroxisome biomarkers in HIV disease progression and peroxisome activating drugs for HIV treatment” (priority 2017, dated 2023)
Entries after “also recorded” stand apart in the source; their conditions may differ.

Experiments:
HIV = HIV p24 ELISA in niclosamide-pretreated HeLa CD4+ cells; type: cell-based; settings: HeLa CD4+ cells pretreated 24 hrs, HIV MOI=0.5, 48 hrs, vs DMSO, FIG. 17
Description: HeLa CD4+ cells were pretreated with the indicated concentrations of the peroxisome proliferator, niclosamide for 24 hrs or DMSO alone (vehicle control). Cells were then infected with HIV, MOI=0.5) for 48 hrs after which levels of the viral protein p24 were measured by ELISA.

HIV p24 protein = assay: HIV p24 immunoblot in niclosamide-pretreated HeLa CD4+ cells; type: cell-based; settings: HeLa CD4+ cells pretreated 24 hrs, HIV MOI=0.5, 48 hrs, relative to DMSO, FIG. 18/19
Description: (§1) HeLa CD4+ cells were pretreated with the indicated concentrations of the peroxisome proliferator, niclosamide for 24 hrs or DMSO alone (vehicle control). Cells were then infected with HIV, MOI=0.5) for 48 hrs after which levels of the viral protein p24 and peroxisomal protein were measured by immunoblotting. Actin served as loading control.

[1] = system: niclosamide-treated cells; assay: Relative cell viability by ATP levels in cell lysates; type: cell-based; settings: below 1 micromolar, 72 hours, vs DMSO, FIG. 20
Description: Cells treated with niclosamide or DMSO were harvested after 72 hours. Relative cell viability was determined by measuring ATP levels in the cell lysates.

peroxisomal protein PEX7 = assay: PEX7 immunoblot in niclosamide-pretreated HIV-infected HeLa CD4+ cells; type: cell-based, human; settings: 48 hrs, relative to DMSO
Description: as §1

Compound: O=C(Nc1ccc([N+](=O)[O-])cc1Cl)c1cc(Cl)ccc1O [niclosamide, 5-chloro-N-(2-chloro-4-nitrophenyl)-2-hydroxybenzamide]
- HIV replication (levels of viral protein p24 by ELISA) (HIV): potently and significantly inhibits HIV replication
- HIV replication (levels of viral protein p24 by ELISA) (HIV; listed as Niclosamide): significantly inhibited HIV replication
- HIV p24 protein level by immunoblotting (HIV p24 protein): inhibits expression; also recorded: inhibits HIV replication
- HIV p24 protein level by immunoblotting (HIV p24 protein; listed as Niclosamide): inhibited expression; also recorded: inhibited HIV replication
- cytotoxicity (relative cell viability, ATP levels) [1]: not cytotoxic
- PEX7 protein level by immunoblotting (peroxisomal protein PEX7; FIG. 19): increases expression
- PEX7 protein level by immunoblotting (peroxisomal protein PEX7; FIG. 19, listed as Niclosamide): increased expression
